Experimental data as given in ChEMBL document CHEMBL1201862, “PubChem BioAssay data set” (2004).
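Five compound concentrations were applied to cells in 96-well plates for 48 hours; endpoints were derived by simple linear interpolation of the resulting dose-response curve. The concentration for 50% growth inhibition is given as GI50.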 Active and inactive are the calls of the source. No stated cut-off is given here; in the data, active = GI50 up to about 1.1 µM and inactive = higher.

Columns and labels:
Assay in all cases: NCI anticancer screen, dose series, 48 h
MOLT-4 = test system: MOLT-4
Hs-578T = test system: Hs-578T
DU-145 = test system: DU-145
RPMI-8226 = test system: RPMI-8226
NCI-H460 = test system: NCI-H460
HCT-116 = test system: HCT-116
PC-3 = test system: PC-3
SK-OV-3 = test system: SK-OV-3
SK-MEL-5 = test system: SK-MEL-5
HT-29 = test system: HT-29
K562 = test system: K562
SN12C = test system: SN12C
HCT-15 = test system: HCT-15
EKVX = test system: EKVX
UO-31 = test system: UO-31
UACC-62 = test system: UACC-62
COLO 205 = test system: COLO 205
TK-10 = test system: TK-10

| Compound | GI50 (MOLT-4) | GI50 (Hs-578T) | GI50 (DU-145) | GI50 (RPMI-8226) | GI50 (NCI-H460) | GI50 (HCT-116) | GI50 (PC-3) | GI50 (SK-OV-3) | GI50 (SK-MEL-5) | GI50 (HT-29) | GI50 (K562) | GI50 (SN12C) | GI50 (HCT-15) | GI50 (EKVX) | GI50 (UO-31) | GI50 (UACC-62) | GI50 (COLO 205) | GI50 (TK-10) |
| --- | --- | --- | --- | --- | --- | --- | --- | --- | --- | --- | --- | --- | --- | --- | --- | --- | --- | --- |
| C=CCCCCCCCCCOC1C=CC(O)C(CO)O1 (centres undefined) | 25.5 µM (inactive) | 46 µM (inactive) | 95.3 µM (inactive) | 14.9 µM (inactive) | 25.2 µM (inactive) | 46.3 µM (inactive) | 26.5 µM (inactive) | 83.6 µM (inactive) | 20.3 µM (inactive) | 22.6 µM (inactive) | 20.6 µM (inactive) | 49.5 µM (inactive) | 35.1 µM | 39.2 µM (inactive) | 35.8 µM (inactive) | 27.8 µM (inactive) | 37.1 µM (inactive) | 36.7 µM (inactive) |
| C=C1C(=O)O[C@H]2C[C@@]3(COC(C)=O)C=COC=C(COC(=O)C(C)C)C3CC12 (some centres undefined) | 28.4 µM (inactive) | > 100 µM (inactive) | > 100 µM (inactive) | 21.5 µM (inactive) | > 100 µM (inactive) | 37.5 µM (inactive) | 35.3 µM (inactive) |  | > 100 µM (inactive) | > 100 µM (inactive) | 31.6 µM (inactive) | 37.7 µM (inactive) | > 100 µM | > 100 µM (inactive) | > 100 µM (inactive) | 13.2 µM (inactive) | 61.1 µM (inactive) | > 100 µM (inactive) |
| O=C(CNC(=O)c1ccccc1)Oc1c(Cl)c(Cl)c(Cl)c(Cl)c1Cl | 29 µM (inactive) | 24.9 µM (inactive) | 23.4 µM (inactive) | 38.7 µM (inactive) | 38.5 µM (inactive) | 56.4 µM (inactive) | 24.7 µM (inactive) | 72.4 µM (inactive) |  | 30.5 µM (inactive) | 28.2 µM (inactive) | 32.1 µM (inactive) | 30.6 µM | 21.5 µM (inactive) | 22 µM (inactive) | 21.9 µM (inactive) | 35 µM (inactive) | 40.4 µM (inactive) |
| COc1ccccc1/N=N/C(=N/NC(=O)c1ccc(C)cc1)c1ccc(N(CCC#N)CCC#N)cc1OC | 19.1 µM (inactive) | 56.4 µM (inactive) | 40.8 µM (inactive) | 14 µM (inactive) | 29.5 µM (inactive) | 25.1 µM (inactive) | 26.5 µM (inactive) | 37.1 µM (inactive) | 37.8 µM (inactive) | 33.1 µM (inactive) | 31.3 µM (inactive) | 28.3 µM (inactive) | 42.3 µM | 26.4 µM (inactive) | 38.5 µM (inactive) | 38.3 µM (inactive) | 16 µM (inactive) | 68.5 µM (inactive) |
| C=C(C)COC1CCCCO1 (centres undefined) | > 100 µM (inactive) | > 100 µM (inactive) | > 100 µM (inactive) | > 100 µM (inactive) | > 100 µM (inactive) | > 100 µM (inactive) | > 100 µM (inactive) | > 100 µM (inactive) | > 100 µM (inactive) | > 100 µM (inactive) | 41.6 µM (inactive) | > 100 µM (inactive) | > 100 µM | > 100 µM (inactive) | > 100 µM (inactive) | > 100 µM (inactive) | > 100 µM (inactive) | > 100 µM (inactive) |
| CC1=C(C(=O)NCCc2ccccc2)CC(C(=O)NCCc2ccccc2)=C(C)N1 | 74 µM (inactive) | 29.9 µM (inactive) | > 100 µM (inactive) | 45.7 µM (inactive) | 82.4 µM (inactive) | 74.5 µM (inactive) | 37.2 µM (inactive) | > 100 µM (inactive) |  | 61.1 µM (inactive) | 44.3 µM (inactive) | > 100 µM (inactive) | > 100 µM | 65.3 µM (inactive) | 65.8 µM (inactive) | > 100 µM (inactive) | > 100 µM (inactive) | > 100 µM (inactive) |
| C#CC(O)Cc1ccc(OC)c2occc12 (centres undefined) |  | > 100 µM (inactive) | > 100 µM (inactive) | > 100 µM (inactive) | > 100 µM (inactive) | > 100 µM (inactive) | > 100 µM (inactive) | > 100 µM (inactive) | > 100 µM (inactive) | > 100 µM (inactive) | > 100 µM (inactive) | > 100 µM (inactive) | > 100 µM | 69.3 µM (inactive) | > 100 µM (inactive) | > 100 µM (inactive) | > 100 µM (inactive) | > 100 µM (inactive) |
| Cn1ccc(C(=O)NCCOCCNC(=O)c2ccn(C)c(=O)c2O)c(O)c1=O |  | > 100 µM (inactive) | > 100 µM (inactive) | > 100 µM (inactive) | > 100 µM (inactive) | > 100 µM (inactive) | > 100 µM (inactive) |  | > 100 µM (inactive) | > 100 µM (inactive) |  | > 100 µM (inactive) | > 100 µM |  | > 100 µM (inactive) | > 100 µM (inactive) | > 100 µM (inactive) | > 100 µM (inactive) |
| Nc1ccc(S(=O)(=O)C23CC4CC(CC(C4)C2)C3)cc1 |  | > 100 µM (inactive) | 78 µM (inactive) | 55.3 µM (inactive) | 74.3 µM (inactive) | > 100 µM (inactive) | 51.5 µM (inactive) | > 100 µM (inactive) | 4.49 µM (inactive) | > 100 µM (inactive) | 89.5 µM (inactive) | > 100 µM (inactive) | > 100 µM | > 100 µM (inactive) | > 100 µM (inactive) | > 100 µM (inactive) | 74.1 µM (inactive) | > 100 µM (inactive) |
| CC[C@@H](C)[C@H](NC(=O)[C@H](Cc1ccccc1)NCC(F)(F)F)C(=O)OC(C)(C)C | 67.3 µM (inactive) | > 100 µM (inactive) | > 100 µM (inactive) |  | > 100 µM (inactive) | > 100 µM (inactive) | 91.6 µM (inactive) | > 100 µM (inactive) | > 100 µM (inactive) | > 100 µM (inactive) | > 100 µM (inactive) | > 100 µM (inactive) | > 100 µM | > 100 µM (inactive) | > 100 µM (inactive) | 47.8 µM (inactive) | > 100 µM (inactive) | > 100 µM (inactive) |
| O=C1COCCN1C(=O)c1ccccc1Cl | > 10 µM (inactive) | > 100 µM (inactive) | > 100 µM (inactive) | > 100 µM (inactive) | > 100 µM (inactive) | > 100 µM (inactive) | > 100 µM (inactive) |  | > 100 µM (inactive) | > 100 µM (inactive) | > 100 µM (inactive) | > 100 µM (inactive) | > 100 µM | > 100 µM (inactive) | > 100 µM (inactive) | > 100 µM (inactive) |  | > 100 µM (inactive) |
| Cc1nc2sc3cccc(Cl)c3n2c(=O)c1/N=N/c1ccc(Cl)cc1 | 44.9 µM (inactive) | 45.9 µM (inactive) | > 100 µM (inactive) | > 100 µM (inactive) | > 100 µM (inactive) | 88.1 µM (inactive) | 51.2 µM (inactive) | > 100 µM (inactive) | 68.2 µM (inactive) | 67.1 µM (inactive) | 63 µM (inactive) | > 100 µM (inactive) | > 100 µM | 38.5 µM (inactive) |  |  | 94.6 µM (inactive) | > 100 µM (inactive) |
| CC1CN(c2cc3c(cc2F)c(=O)c(C(=O)O)cn3-c2ccc(F)cn2)CC(C)N1 (centres undefined) | > 100 µM (inactive) | > 100 µM (inactive) | > 100 µM (inactive) | > 100 µM (inactive) | > 100 µM (inactive) | > 100 µM (inactive) | > 100 µM (inactive) | > 100 µM (inactive) |  | > 100 µM (inactive) | > 100 µM (inactive) | > 100 µM (inactive) | > 100 µM | > 100 µM (inactive) | > 100 µM (inactive) | > 100 µM (inactive) | > 100 µM (inactive) | > 100 µM (inactive) |
| CC1(C)O[C@H]2OC(CO)C(N=[N+]=[N-])[C@H]2O1 (some centres undefined) | > 100 µM (inactive) | > 100 µM (inactive) | > 100 µM (inactive) | > 100 µM (inactive) | > 100 µM (inactive) | > 100 µM (inactive) | > 100 µM (inactive) |  | > 100 µM (inactive) | > 100 µM (inactive) |  | > 100 µM (inactive) | > 100 µM | > 100 µM (inactive) | > 100 µM (inactive) | > 100 µM (inactive) | > 100 µM (inactive) | > 100 µM (inactive) |
| CO/N=C(\C(=O)O/C(=N/C1CCCCC1)NC1CCCCC1)c1csc(NC(c2ccccc2)(c2ccccc2)c2ccccc2)n1 | > 10 µM (inactive) | > 10 µM (inactive) | > 10 µM (inactive) | > 10 µM (inactive) | > 10 µM (inactive) | > 10 µM (inactive) | > 10 µM (inactive) | > 10 µM (inactive) | > 10 µM (inactive) | > 10 µM (inactive) | > 10 µM (inactive) | > 10 µM (inactive) | > 10 µM | > 10 µM (inactive) | > 10 µM (inactive) |  | > 10 µM (inactive) | > 10 µM (inactive) |
| CC1(C)[C@@H](Cn2cnc3c(O)nc(N)nc32)CC[C@@]1(C)CO | 1.34 µM (inactive) | > 100 µM (inactive) | > 100 µM (inactive) | > 100 µM (inactive) |  | > 100 µM (inactive) | > 100 µM (inactive) | > 100 µM (inactive) | > 100 µM (inactive) |  | > 100 µM (inactive) | > 100 µM (inactive) | > 100 µM | > 100 µM (inactive) | > 100 µM (inactive) | 60.5 µM (inactive) |  | > 100 µM (inactive) |
| Nc1nc(O)c2ncn([C@H]3CC[C@@H](CO)O3)c2n1 | > 100 µM (inactive) | > 100 µM (inactive) | > 100 µM (inactive) | > 100 µM (inactive) | > 100 µM (inactive) | > 100 µM (inactive) | > 100 µM (inactive) | > 100 µM (inactive) | > 100 µM (inactive) | > 100 µM (inactive) | > 100 µM (inactive) | > 100 µM (inactive) | > 100 µM |  | > 100 µM (inactive) | > 100 µM (inactive) | > 100 µM (inactive) | > 100 µM (inactive) |
